Assay results reported in BindingDB's records for patent US20240174696 (Genentech, 2024).

Biological target: T1, Serine/threonine-protein kinase LATS2 (Homo sapiens, UniProt Q9NRM7)
T1 sequence (Q9NRM7 whole entry): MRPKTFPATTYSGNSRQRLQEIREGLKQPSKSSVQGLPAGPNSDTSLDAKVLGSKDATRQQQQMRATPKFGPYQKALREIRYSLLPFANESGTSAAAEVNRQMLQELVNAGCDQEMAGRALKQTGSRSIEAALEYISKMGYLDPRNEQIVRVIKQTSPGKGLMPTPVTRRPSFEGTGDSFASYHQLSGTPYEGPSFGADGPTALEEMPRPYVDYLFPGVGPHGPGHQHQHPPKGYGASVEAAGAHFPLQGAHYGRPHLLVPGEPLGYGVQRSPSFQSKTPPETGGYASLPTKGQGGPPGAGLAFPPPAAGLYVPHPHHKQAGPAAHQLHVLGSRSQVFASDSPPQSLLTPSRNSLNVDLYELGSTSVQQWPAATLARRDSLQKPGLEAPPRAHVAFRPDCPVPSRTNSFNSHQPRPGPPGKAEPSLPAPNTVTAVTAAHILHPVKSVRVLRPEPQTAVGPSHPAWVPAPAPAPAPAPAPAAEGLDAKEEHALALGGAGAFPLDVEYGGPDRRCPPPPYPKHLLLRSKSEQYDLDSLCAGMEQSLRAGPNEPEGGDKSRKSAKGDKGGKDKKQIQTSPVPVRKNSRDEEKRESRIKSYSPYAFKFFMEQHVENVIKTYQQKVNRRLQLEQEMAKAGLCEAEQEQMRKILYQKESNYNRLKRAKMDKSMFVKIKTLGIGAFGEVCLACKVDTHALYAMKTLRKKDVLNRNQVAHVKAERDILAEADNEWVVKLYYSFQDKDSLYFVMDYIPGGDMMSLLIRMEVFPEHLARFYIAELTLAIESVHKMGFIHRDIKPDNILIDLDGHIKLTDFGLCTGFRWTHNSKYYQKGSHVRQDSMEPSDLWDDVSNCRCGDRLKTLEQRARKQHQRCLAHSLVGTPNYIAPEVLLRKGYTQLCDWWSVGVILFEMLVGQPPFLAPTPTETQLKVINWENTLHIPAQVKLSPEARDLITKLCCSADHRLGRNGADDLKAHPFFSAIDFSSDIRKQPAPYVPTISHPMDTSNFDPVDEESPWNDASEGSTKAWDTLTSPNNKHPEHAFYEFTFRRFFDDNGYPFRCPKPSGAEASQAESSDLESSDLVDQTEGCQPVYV
Assay: Standard LATS2 HTRF Assay
Method: Human LATS2 catalytic domain which contains the amino acids G553-V1088 (accession NP_055387) was purified in-house. The LATS2 catalytic domain was co-purified with Mob1b (accession NP_775739). The LATS2 biochemical HTRF assay was performed using the HTRF KinEASE-STK S1 Kit (Cisbio, Cat #62ST1PEC), following the protocol from the manufacturer. Compounds were dispensed by the Echo Liquid Handler (Labcyte) into a white 384-well plate (PerkinElmer, Cat #6008289). 3 uL of 2×LATS2 enzyme solution was added to the compounds, following by a 10 minute incubation at room temperature. Then, 2×ATP and STK S1 peptide solution was added to initiate the one hour enzyme reaction at room temperature. The final condition of the reaction was 0.2 nM LATS2, 50 μM ATP, 0.5 μM STK S1 peptide in 50 mM HEPES pH7.2, 10 mM MgCl2, 0.1% BGG, 0.005% Brij-35, 1 mM DTT. The reaction was quenched by adding 6 uL of the detection mixture which contained Streptavidin XL665 and STK Antibody-Cryptate (Cisbio), incubate for 1 hour at room temperature. The HTRF (665 nm/620 nm) signal was read on the Envision plater reader (PerkinElmer). The IC50 values were determined by fitting the % inhibition with a nonlinear four-parameter logistical equation. The Ki values were calculated using the Cheng-Prusoff equation for a competitive inhibitor, IC50═Ki (1+S/Km)+M [E] with ATP Km for LATS2=105 μM.

Ki: 0.022 nM
SMILES: COc1cncc2nc(-c3ccncc3)nc(N3CCC4(CCN(C)C4)CC3)c12 [US20240174696, Compound 252]
